The record followed here is patent publication US8247403B2, “Benzoxazepine derivatives and use thereof” (Takeda Pharmaceutical Company Limited, priority 2007, dated 2012).

Assay [1] has as its target serotonin 5-HT2C receptor (Homo sapiens, UniProt P28335, I156V/I160V/N158S). The assay is described as follows: cell-based. The settings on record: CHO, read-out: ratio to maximum response by 5-HT (1 μM).
Assay [2] deals with female spinal cord transected rat whose hypogastric nerve and pudendal nerves were bilaterally cut. Description: Urethral closure response induced by increased bladder pressure in rat with hypogastric and pudendal nerves cut. The format is in vivo. As to the method: SD female rats (body weight 230-274 g) were anesthetized with urethane (Wako Pure Chemical Industries, Ltd.), and the spinal cord was cut at T8-9 level to eliminate the micturition reflex. During the operation, halothane (Takeda Pharmaceutical Company Limited) anesthesia was added as necessary. The abdomen was opened, the bladder neck was ligated with a suture thread, and then, the hypogastric nerve and the pudendal nerves were bilaterally cut. A catheter (PE-90, Clay Adams) was inserted in the bladder, and the other end of the bladder catheter was connected to the pressure transducer and an aquatic reservoir (60 ml syringe) of saline via a three-way cock. A microchip transducer catheter (SPR-524, Millar Instruments Inc.) was inserted from the urethral orifice toward the bladder, and the transducer part was adjusted to be in the urethra at 10.0-15.0 mm from the urethral orifice using the scale on the catheter surface. The topical changes in the urethral pressure (hereinafter to be referred to as urethral pressure for convenience) measured by the microchip transducer were input into a computer via an amplifier (BP Amp; ADINSTRUMENTS) and a data analyzer (Powerlab 4/25; ADINSTRUMENTS; sampled at 1000 Hz), and recorded on a hard disk. […] The response of the urethra induced by the increased bladder pressure was repeatedly measured, and the average value of the last two measures was taken as the value before drug administration. The evaluation item was reflective urethral closure response, and the average urethral pressure for 30 seconds before increasing the bladder pressure and 30 seconds when the bladder pressure was raised to 50 cm was calculated. Then, the value before bladder pressure increase was subtracted from the value during bladder pressure increase and taken as the urethral closure response. […] The drug was dissolved in saline with dimethylformamide, and intravenously administered at 1 ml/kg.

The structures appear in SMILES notation. Counter-ions that a name gives are not always drawn.

Sequence of serotonin 5-HT2C receptor (P28335 33-458 I156V/N158S/I160V limits assumed): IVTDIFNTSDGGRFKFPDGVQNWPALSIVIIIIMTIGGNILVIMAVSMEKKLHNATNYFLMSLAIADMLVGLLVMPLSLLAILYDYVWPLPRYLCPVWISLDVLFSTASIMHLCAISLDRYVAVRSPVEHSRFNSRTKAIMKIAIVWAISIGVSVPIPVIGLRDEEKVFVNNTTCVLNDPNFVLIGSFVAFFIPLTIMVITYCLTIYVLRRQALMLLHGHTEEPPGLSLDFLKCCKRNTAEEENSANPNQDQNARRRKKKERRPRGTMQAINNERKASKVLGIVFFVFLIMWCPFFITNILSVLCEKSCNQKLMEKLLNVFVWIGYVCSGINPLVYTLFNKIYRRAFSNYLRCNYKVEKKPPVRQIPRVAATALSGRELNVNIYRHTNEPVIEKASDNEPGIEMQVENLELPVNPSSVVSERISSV

With `Cl.c1cc2c(c(C3CCC3)c1)OCCNC2` [Example 63, 9-cyclobutyl-2,3,4,5-tetrahydro-1,4-benzoxazepine hydrochloride], the activation at 1 µM in assay [1] is 97.6%. The “Urethral closure response, after drug administration” value in assay [2] (3 mg/kg i.v., 10 min after administration, n=6, bladder pressure raised to 50 cm H2O) is 6.2 ± 0.9 cm H2O. For the same compound, in assay [2] (3 mg/kg i.v., difference between after and before drug administration, P < 0.001 vs vehicle), the “Urethral closure response, increase” value amounted to 4.4 ± 0.7 cm H2O. Moreover, the “Urethral closure response, before drug administration” value in assay [2] (baseline of the 3 mg/kg i.v. group, n=6, bladder pressure raised to 50 cm H2O) stood at 1.8 ± 0.5 cm H2O. The “effect on urethral closure response induced by increased bladder pressure (in words)” value in assay [2] (intravenous administration, bladder pressure 0 to 50 cm H2O) was “significantly increased the urethral closure response”. Consider `CCN(CC)c1ccc2c(c1)OCCNC2` [Example 5, N,N-diethyl-2,3,4,5-tetrahydro-1,4-benzoxazepine-8-amine dihydrochloride], for which, in assay [1], the activation at 1 µM was 91.9%. Turning to `FC(F)(F)c1ccccc1-c1cccc2c1OCCNC2` [Example 12, 9-[2-(trifluoromethyl)phenyl]-2,3,4,5-tetrahydro-1,4-benzoxazepine hydrochloride], the activation at 1 µM in assay [1] amounted to 93.6%. As for `C1=C(c2cccc3c2OCCNC3)CCC1` [Example 26, 9-(cyclopenta-1-en-1-yl)-2,3,4,5-tetrahydro-1,4-benzoxazepine hydrochloride], the activation at 1 µM in assay [1] is 101%. As for `CC(C)N(C)c1ccc2c(c1)OCCNC2` [Example 4, N-isopropyl-N-methyl-2,3,4,5-tetrahydro-1,4-benzoxazepine-8-amine dihydrochloride], in assay [1], the activation at 1 µM came to 100%. For `c1cc2c(cc1N1CCOCC1)OCCNC2` [Example 1, 8-(morpholin-4-yl)-2,3,4,5-tetrahydro-1,4-benzoxazepine hydrochloride], the activation at 1 µM in assay [1] came to 95.4%. Regarding `CC(c1cccc2c1OCCNC2)C(F)(F)F` (centres unmarked) [Example 59, 9-(2,2,2-trifluoro-1-methylethyl)-2,3,4,5-tetrahydro-1,4-benzoxazepine hydrochloride], the activation at 1 µM in assay [1] was determined as 95.2%. With `c1cc2c(cc1N1CCCC1)OCCNC2` [Example 2, 8-(pyrrolidin-1-yl)-2,3,4,5-tetrahydro-1,4-benzoxazepine dihydrochloride], the activation at 1 µM in assay [1] was 93.1%. `c1cc2c(c(C3CC3)c1)OCCNC2` [Example 64, 9-cyclopropyl-2,3,4,5-tetrahydro-1,4-benzoxazepine hydrochloride]: in assay [1], the activation at 1 µM is 94.6%. Regarding `Clc1ccccc1-c1cccc2c1OCCNC2` [Example 10, 9-(2-chlorophenyl)-2,3,4,5-tetrahydro-1,4-benzoxazepine hydrochloride], the activation at 1 µM in assay [1] turned out to be 94%.

Take `c1cc2c(c(C3CCOC3)c1)OCCNC2` (centres unmarked) [Example 55, 9-(tetrahydrofuran-3-yl)-2,3,4,5-tetrahydro-1,4-benzoxazepine hydrochloride]: the activation at 1 µM in assay [1] amounted to 103%. On to `FC1(F)CCN(c2cccc3c2OCCNC3)C1` [Example 58, 9-(3,3-difluoropyrrolidin-1-yl)-2,3,4,5-tetrahydro-1,4-benzoxazepine], for which the activation at 1 µM in assay [1] worked out at 95.5%.

As to `CCN(C)c1ccc2c(c1)OCCNC2` [Example 6, N-ethyl-N-methyl-2,3,4,5-tetrahydro-1,4-benzoxazepine-8-amine dihydrochloride], in assay [1], the activation at 1 µM turned out to be 102%. The same measure, in the same setting: with `c1cc2c(c(N3CCCC3)c1)OCCNC2` [Example 7, 9-(pyrrolidin-1-yl)-2,3,4,5-tetrahydro-1,4-benzoxazepine dihydrochloride] the figure was 107%; with `c1ccc(-c2cccc3c2OCCNC3)cc1` [Example 9, 9-phenyl-2,3,4,5-tetrahydro-1,4-benzoxazepine hydrochloride], 93.1%; with `c1cc2c(c(-c3ccoc3)c1)OCCNC2` [Example 15, 9-(3-furyl)-2,3,4,5-tetrahydro-1,4-benzoxazepine hydrochloride], 96.2%. For `Cc1ccccc1-c1cccc2c1OCCNC2` [Example 11, 9-(2-methylphenyl)-2,3,4,5-tetrahydro-1,4-benzoxazepine hydrochloride], the activation at 1 µM in assay [1] was 92.7%. The same measure, in the same setting: with `c1cc2c(c(-c3ccsc3)c1)OCCNC2` [Example 16, 9-(3-thienyl)-2,3,4,5-tetrahydro-1,4-benzoxazepine hydrochloride] the figure was 99.1%; with `c1cc2c(cc1N1CCCCC1)OCCNC2` [Example 3, 8-(piperidin-1-yl)-2,3,4,5-tetrahydro-1,4-benzoxazepine dihydrochloride], 94.3%.
